BigSolDB 2.1

CC(C)[C@H](C)[C@@H](O)[C@H](O)[C@@H](C)[C@H]1CC[C@H]2[C@@H]3COC(=O)[C@H]4C[C@H](O)[C@H](O)C[C@]4(C)[C@H]3CC[C@]12C
solubility (mole fraction)
Conditions | 278.15 K | 283.15 K | 288.15 K | 293.15 K | 298.15 K | 303.15 K | 308.15 K | 313.15 K | 318.15 K | 323.15 K
in THF | 0.16 | 0.185 | 0.21 | 0.239 | 0.269 | 0.297 | 0.328 | 0.361 | 0.395 | 0.43
in acetone | 0.09 | 0.106 | 0.124 | 0.145 | 0.166 | 0.188 | 0.213 | 0.239 | 0.267 | 0.296
in acetonitrile | 0.00057 | 0.00067 | 0.00078 | 0.0009 | 0.00103 | 0.00118 | 0.00133 | 0.00149 | 0.00167 | 0.00186
in chloroform | 0.00083 | 0.00095 | 0.00109 | 0.00125 | 0.00142 | 0.0016 | 0.00181 | 0.00204 | 0.00229 | 0.00256
in isopropanol | 0.00031 | 0.00036 | 0.00041 | 0.00047 | 0.00054 | 0.00062 | 0.0007 | 0.0008 | 0.00091 | 0.00104
in methanol | 0.0321 | 0.0377 | 0.0442 | 0.0511 | 0.0588 | 0.0675 | 0.077 | 0.0875 | 0.099 | 0.112
in n-butanol | 0.00046 | 0.00054 | 0.00062 | 0.00071 | 0.00082 | 0.00093 | 0.00106 | 0.00121 | 0.00137 | 0.00155
in n-heptane | 7e-05 | 0.0001 | 0.00014 | 0.00018 | 0.00022 | 0.00028 | 0.00033 | 0.00039 | 0.00046 | 0.00052
in n-hexane | 9e-05 | 0.00012 | 0.00016 | 0.0002 | 0.00025 | 0.00031 | 0.00037 | 0.00044 | 0.00051 | 0.00059
